In US20170240556A1, “BIFLUORODIOXALANE-AMINO-BENZIMIDAZOLE KINASE INHIBITORS FOR THE TREATMENT OF CANCER, AUTOIMMUNEINFLAMMATION AND CNS DISORDERS” (4SC DISCOVERY GMBH, priority 2012, published 2017) one finds IC50 data, which are given here for 24 compounds.

The term IC50 denotes the concentration that gives 50% inhibition.

Bounds are passed on as bounds.

Assay [1] concerns the target Casein kinase 1 epsilon (CSKN1E) (Homo sapiens, UniProt P49674). Kind of assay: Casein kinase assay, CK1 epsilon. The format is biochemical. Particulars: recombinant CSKN1E 30 nM, ATP 10 μM.
The target of assay [2] is Casein kinase 1 delta (CSKN1D) (Homo sapiens, UniProt P48730). Kind of assay: Casein kinase assay, CK1 delta. Particulars: recombinant CSKN1D 5 nM, ATP 10 μM. The format is biochemical.
Casein kinase 1 delta (CSKN1D), sequence (P48730 whole entry): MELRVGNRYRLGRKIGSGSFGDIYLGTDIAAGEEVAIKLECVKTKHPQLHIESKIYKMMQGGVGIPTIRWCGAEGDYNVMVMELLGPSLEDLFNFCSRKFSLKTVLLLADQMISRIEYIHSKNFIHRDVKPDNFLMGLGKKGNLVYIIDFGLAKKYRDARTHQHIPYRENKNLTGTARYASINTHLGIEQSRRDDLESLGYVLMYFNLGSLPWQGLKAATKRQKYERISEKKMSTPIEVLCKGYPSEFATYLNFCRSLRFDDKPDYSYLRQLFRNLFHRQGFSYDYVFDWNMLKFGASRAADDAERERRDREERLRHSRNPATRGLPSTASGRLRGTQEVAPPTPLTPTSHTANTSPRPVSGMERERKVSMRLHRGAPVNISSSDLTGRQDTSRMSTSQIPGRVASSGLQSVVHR

Casein kinase 1 epsilon (CSKN1E), sequence (P49674 whole entry): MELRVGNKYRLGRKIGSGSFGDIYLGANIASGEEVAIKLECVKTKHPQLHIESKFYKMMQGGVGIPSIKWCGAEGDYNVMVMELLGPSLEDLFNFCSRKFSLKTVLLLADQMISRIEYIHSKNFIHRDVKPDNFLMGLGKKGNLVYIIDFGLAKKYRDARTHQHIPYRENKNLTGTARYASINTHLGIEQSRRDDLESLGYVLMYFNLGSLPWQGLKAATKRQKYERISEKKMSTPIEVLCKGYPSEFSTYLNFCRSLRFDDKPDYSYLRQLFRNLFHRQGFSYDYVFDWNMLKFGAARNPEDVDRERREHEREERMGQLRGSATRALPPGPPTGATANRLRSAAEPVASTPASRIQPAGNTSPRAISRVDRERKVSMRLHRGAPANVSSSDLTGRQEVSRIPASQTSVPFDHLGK

On to `CS(=O)(=O)c1ccc(C(=O)Nc2nc3cc4c(cc3[nH]2)OC(F)(F)O4)s1` [Compound 85, N-(2,2-difluoro-5H-[1,3]dioxolo[4′,5′:4,5]benzo[1,2-d]imidazol-6-yl)-5-(methylsulfonyl)thiophene-2-carboxamide], for which the IC50 in assay [1] and in assay [2] was 200 to 1000 nM each time.

As for `O=C(Nc1nc2cc3c(cc2[nH]1)OC(F)(F)O3)c1cc(Cl)ccc1O` [Compound 86, 5-chloro-N-(2,2-difluoro-5H-[1,3]dioxolo[4′,5′:4,5]benzo[1,2-d]imidazol-6-yl)-2-hydroxybenzamide], the IC50 in assay [1] and in assay [2] was over 1000 nM throughout.

For the compound `Nc1cccc(C(=O)Nc2nc3cc4c(cc3[nH]2)OC(F)(F)O4)c1` [Compound 87, 3-amino-N-(2,2-difluoro-5H-[1,3]dioxolo[4′,5′:4,5]benzo[1,2-d]imidazol-6-yl)benzamide], the IC50 in assay [1] was 200 to 1000 nM; in assay [2], under 200 nM.

For `O=C(Nc1nc2cc3c(cc2[nH]1)OC(F)(F)O3)c1cc([N+](=O)[O-])c[nH]1` [Compound 88, N-(2,2-difluoro-5H-[1,3]dioxolo[4′,5′:4,5]benzo[1,2-d]imidazol-6-yl)-4-nitro-1H-pyrrole-2-carboxamide], the IC50 in assay [1] and in assay [2] was under 200 nM each time.

Consider `Cc1ccc(C(=O)Nc2nc(C(=O)Nc3nc4cc5c(cc4[nH]3)OC(F)(F)O5)ns2)cc1` [Compound 89, N-(2,2-difluoro-5H-[1,3]dioxolo[4′,5′:4,5]benzo[1,2-d]imidazol-6-yl)-5-(4-methylbenzamido)-1,2,4-thiadiazole-3-carboxamide], for which the IC50 in assay [1] and in assay [2] was 200 to 1000 nM each time.

As to `COc1ccc(C(=O)Nc2nc(C(=O)Nc3nc4cc5c(cc4[nH]3)OC(F)(F)O5)ns2)cc1` [Compound 90, N-(2,2-difluoro-5H-[1,3]dioxolo[4′,5′:4,5]benzo[1,2-d]imidazol-6-yl)-5-(4-methoxybenzamido)-1,2,4-thiadiazole-3-carboxamide], the IC50 in assay [1] and in assay [2] was over 1000 nM throughout.

Turning to `O=C(Nc1nc(C(=O)Nc2nc3cc4c(cc3[nH]2)OC(F)(F)O4)ns1)c1ccc(Cl)cc1` [Compound 91], the IC50 in assay [1] and in assay [2] was under 200 nM each time.

For the compound `O=C(Nc1nc(C(=O)Nc2nc3cc4c(cc3[nH]2)OC(F)(F)O4)ns1)c1ccc(F)cc1` [Compound 92, N-(2,2-difluoro-5H-[1,3]dioxolo[4′,5′:4,5]benzo[1,2-d]imidazol-6-yl)-5-(4-fluorobenzamido)-1,2,4-thiadiazole-3-carboxamide], the IC50 in assay [1] and in assay [2] was under 200 nM in each case.

For `CC(=O)Nc1n[nH]c(C(=O)Nc2nc3cc4c(cc3[nH]2)OC(F)(F)O4)n1` [Compound 95, 3-acetamido-N-(2,2-difluoro-5H-[1,3]dioxolo[4′,5′:4,5]benzo[1,2-d]imidazol-6-yl)-1H-1,2,4-triazole-5-carboxamide], the IC50 in assay [1] and in assay [2] was over 1000 nM in each case.

Take `O=C(Nc1nc2cc3c(cc2[nH]1)OC(F)(F)O3)c1csc(C2CCN(c3ncnc4ccsc34)CC2)n1` [Compound 97, N-(2,2-difluoro-5H-[1,3]dioxolo[4′,5′:4,5]benzo[1,2-d]imidazol-6-yl)-2-(1-(thieno[3,2-d]pyrimidin-4-yl)piperidin-4-yl)thiazole-4-carboxamide]: the IC50 in assay [1] and in assay [2] was 200 to 1000 nM each time.

As to `O=C(Nc1nc2cc3c(cc2[nH]1)OC(F)(F)O3)c1csc(-n2c(=O)n(CCN3CCOCC3)c3ccccc32)n1` [Compound 98, N-(2,2-difluoro-5H-[1,3]dioxolo[4′,5′:4,5]benzo[1,2-d]imidazol-6-yl)-2-(3-(2-morpholinoethyl)-2-oxo-2,3-dihydro-1H-benzo[d]imidazol-1-yl)thiazole-4-carboxamide], the IC50 in assay [1] was over 1000 nM; in assay [2], 200 to 1000 nM.

In the case of `COc1cc(Nc2ncc(C(=O)Nc3nc4cc5c(cc4[nH]3)OC(F)(F)O5)s2)nc(OC)n1` [Compound 99, N-(2,2-difluoro-5H-[1,3]dioxolo[4′,5′:4,5]benzo[1,2-d]imidazol-6-yl)-2-((2,6-dimethoxypyrimidin-4-yl)amino)thiazole-5-carboxamide], the IC50 in assay [1] and in assay [2] was over 1000 nM throughout.

Take `CC(=O)c1c[nH]c(C(=O)Nc2nc3cc4c(cc3[nH]2)OC(F)(F)O4)c1` [Compound 104, 4-acetyl-N-(2,2-difluoro-5H-[1,3]dioxolo[4′,5′:4,5]benzo[1,2-d]imidazol-6-yl)-1H-pyrrole-2-carboxamide]: the IC50 in assay [1] and in assay [2] was under 200 nM throughout.

On to `NC(=O)c1ccc(C(=O)Nc2nc3cc4c(cc3[nH]2)OC(F)(F)O4)cc1` [Compound 111, N^1-(2,2-difluoro-5H-[1,3]dioxolo[4′,5′:4,5]benzo[1,2-d]imidazol-6-yl)terephthalamide], for which the IC50 in assay [1] and in assay [2] was under 200 nM in each case.

Consider `O=C(Nc1nc2cc3c(cc2[nH]1)OC(F)(F)O3)c1ccc(S(=O)(=O)N2CCOCC2)cc1` [Compound 117, N-(2,2-difluoro-5H-[1,3]dioxolo[4′,5′:4,5]benzo[1,2-d]imidazol-6-yl)-4-(morpholinosulfonyl)benzamide], for which the IC50 in assay [1] and in assay [2] was under 200 nM in each case.

For the compound `O=C(Nc1n[nH]c(C(=O)Nc2nc3cc4c(cc3[nH]2)OC(F)(F)O4)n1)c1ccc(Cl)cc1` [Compound 129, 3-(chlorobenzamido)-N-(2,2-difluoro-5H-[1,3]dioxolo[4′,5′:4,5]benzo[1,2-d]imidazol-6-yl)-1H-1,2,4-triazole-5-carboxamide], the results for the IC50 in assay [1] and in assay [2] were over 1000 nM and 200 to 1000 nM, respectively.

In the case of `COc1ccc2cc([C@H](C)C(=O)Nc3nc4cc5c(cc4[nH]3)OC(F)(F)O5)ccc2c1` [Compound 133, (S)-N-(2,2-difluoro-5H-[1,3]dioxolo[4′,5′:4,5]benzo[1,2-d]imidazol-6-yl)-2-(6-methoxymaphthalen-2-yl)propanamide], the IC50 in assay [1] and in assay [2] was under 200 nM each time.

Take `Cc1nnsc1-c1nc(C(=O)Nc2nc3cc4c(cc3[nH]2)OC(F)(F)O4)cs1` [Compound 134, N-(2,2-difluoro-5H-[1,3]dioxolo[4′,5′:4,5]benzo[1,2-d]imidazol-6-yl)-2-(4-methyl-1,2,3-thiadiazol-5-yl)thiazole-4-carboxamide]: the IC50 in assay [1] and in assay [2] was under 200 nM each time.

As to `O=C(Nc1nc2cc3c(cc2[nH]1)OC(F)(F)O3)c1csc(-c2cscn2)n1` [Compound 135, N-(2,2-difluoro-5H-[1,3]dioxolo[4′,5′:4,5]benzo[1,2-d]imidazol-6-yl)-[2,4-bithiazole]-4-carboxamide], the IC50 in assay [1] and in assay [2] was under 200 nM throughout.

As for `O=C(Nc1nc2cc3c(cc2[nH]1)OC(F)(F)O3)c1coc(-c2cccs2)n1` [Compound 136, N-(2,2-difluoro-5H-[1,3]dioxolo[4′,5′:4,5]benzo[1,2-d]imidazol-6-yl)-2-(thiophen-2-yl)oxazole-4-carboxamide], the values for the IC50 in assay [1] and in assay [2] were 200 to 1000 nM and under 200 nM, respectively.

In the case of `Cc1cc(-c2nc(C(=O)Nc3nc4cc5c(cc4[nH]3)OC(F)(F)O5)cs2)no1` [Compound 141, N-(2,2-difluoro-5H-[1,3]dioxolo[4′,5′:4,5]benzo[1,2-d]imidazol-6-yl)-2-(5-methylisoxazol-3-yl)thiazole-4-carboxamide], the IC50 in assay [1] and in assay [2] was under 200 nM throughout.

Take `O=C(Nc1nc2cc3c(cc2[nH]1)OC(F)(F)O3)c1ccc(-n2cccn2)cc1` [Compound 142, N-(2,2-difluoro-5H-[1,3]dioxolo[4′,5′:4,5]benzo[1,2-d]imidazol-6-yl)-4-(1H-pyrazol-1-yl)benzamide]: the values for the IC50 in assay [1] and in assay [2] were over 1000 nM and under 200 nM, respectively.

As to `O=C(Nc1nc2cc3c(cc2[nH]1)OC(F)(F)O3)c1cc(-c2ccco2)on1` [Compound 143, N-(2,2-difluoro-5H-[1,3]dioxolo[4′,5′:4,5]benzo[1,2-d]imidazol-6-yl)-5-(furan-2-yl)isoxazole-3-carboxamide], the IC50 in assay [1] and in assay [2] was 200 to 1000 nM throughout.

Turning to `Cc1nn(C)cc1-c1cc(C(=O)Nc2nc3cc4c(cc3[nH]2)OC(F)(F)O4)no1` [Compound 144, N-(2,2-difluoro-5H-[1,3]dioxolo[4′,5′:4,5]benzo[1,2-d]imidazol-6-yl)-5-(1,3-dimethyl-1H-pyrazol-4-yl)isoxazole-3-carboxamide], the IC50 is over 1000 nM in assay [1] and under 200 nM in assay [2].
